Patent US10385054B2, “Pyrrolo[3,2-d]pyrimidine derivatives for the treatment of viral infections and other diseases” (Janssen Sciences Ireland Unlimited Company, priority 2013, dated 2019)

Experiments:
Type in all cases: cell-based
[1] = biological target: T1, human TLR7 (Homo sapiens, UniProt Q9NYK1); assay: TLR7 cellular NFκB-luc reporter assay in transiently transfected HEK293 cells; conditions: lowest effective concentration, 6 hours incubation
T1 construct: expressed in transfected cells; host or cells: HEK293
T1 sequence (Q9NYK1 27-1049): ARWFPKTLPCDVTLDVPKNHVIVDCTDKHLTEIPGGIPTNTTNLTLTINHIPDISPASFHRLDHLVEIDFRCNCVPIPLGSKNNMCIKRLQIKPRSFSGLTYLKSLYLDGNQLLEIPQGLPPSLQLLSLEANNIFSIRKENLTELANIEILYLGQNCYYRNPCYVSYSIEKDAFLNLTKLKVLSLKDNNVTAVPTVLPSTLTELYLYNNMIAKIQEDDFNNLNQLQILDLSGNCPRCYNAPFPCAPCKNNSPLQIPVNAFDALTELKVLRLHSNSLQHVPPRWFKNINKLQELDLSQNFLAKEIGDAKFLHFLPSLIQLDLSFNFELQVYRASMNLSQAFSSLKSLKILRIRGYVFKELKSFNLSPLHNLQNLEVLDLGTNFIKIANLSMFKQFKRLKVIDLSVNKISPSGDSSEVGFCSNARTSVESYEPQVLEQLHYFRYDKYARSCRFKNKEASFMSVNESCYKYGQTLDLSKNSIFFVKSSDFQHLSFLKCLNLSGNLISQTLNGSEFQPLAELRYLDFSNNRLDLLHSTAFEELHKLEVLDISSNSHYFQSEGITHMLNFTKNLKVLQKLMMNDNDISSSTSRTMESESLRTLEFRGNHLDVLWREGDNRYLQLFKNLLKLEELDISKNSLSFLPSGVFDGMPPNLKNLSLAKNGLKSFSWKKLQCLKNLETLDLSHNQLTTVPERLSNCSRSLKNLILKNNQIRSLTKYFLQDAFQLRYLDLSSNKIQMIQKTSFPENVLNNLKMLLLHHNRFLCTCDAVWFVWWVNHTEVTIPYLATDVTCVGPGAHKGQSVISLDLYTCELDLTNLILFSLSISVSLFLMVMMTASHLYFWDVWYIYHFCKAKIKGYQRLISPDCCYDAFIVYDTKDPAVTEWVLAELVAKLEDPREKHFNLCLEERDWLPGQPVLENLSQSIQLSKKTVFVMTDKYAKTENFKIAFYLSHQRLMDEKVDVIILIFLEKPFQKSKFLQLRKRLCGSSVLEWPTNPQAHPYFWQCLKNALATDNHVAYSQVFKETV
Method: (§1) The ability of compounds to activate human TLR7 and/or TLR8 was assessed in a cellular reporter assay using HEK293 cells transiently transfected with a TLR7 or TLR8 expression vector and NFκB-luc reporter construct.
(§2) Briefly, HEK293 cells were grown in culture medium (DMEM supplemented with 10% FCS and 2 mM Glutamine). For transfection of cells in 15 cm dishes, cells were detached with Trypsin-EDTA, transfected with a mix of CMV-TLR7 or TLR8 plasmid (1700 ng), NFκB-luc plasmid (850 ng) and a transfection reagent and incubated for 48 h at 37° C. in a humidified 5% CO2 atmosphere. Transfected cells were then washed in PBS, detached with Trypsin-EDTA and resuspended in medium to a density of 1.25×10^5 cells/mL. Forty microliters of cells were then dispensed into each well in 384-well plates, where 200 nL of compound in 100% DMSO was already present. Following 6 hours incubation at 37° C., 5% CO2, the luciferase activity was determined by adding 15 μL of Steady Lite Plus substrate (Perkin Elmer) to each well and readout performed on a ViewLux ultraHTS microplate imager (Perkin Elmer). Dose response curves were generated from measurements performed in quadruplicates.

[2] = biological target: T2, human TLR8 (Homo sapiens, UniProt Q9NR97); assay: TLR8 cellular NFκB-luc reporter assay in transiently transfected HEK293 cells; conditions: lowest effective concentration, 6 hours incubation
T2 construct: expressed in transfected cells; host or cells: HEK293
T2 sequence (Q9NR97 27-1041): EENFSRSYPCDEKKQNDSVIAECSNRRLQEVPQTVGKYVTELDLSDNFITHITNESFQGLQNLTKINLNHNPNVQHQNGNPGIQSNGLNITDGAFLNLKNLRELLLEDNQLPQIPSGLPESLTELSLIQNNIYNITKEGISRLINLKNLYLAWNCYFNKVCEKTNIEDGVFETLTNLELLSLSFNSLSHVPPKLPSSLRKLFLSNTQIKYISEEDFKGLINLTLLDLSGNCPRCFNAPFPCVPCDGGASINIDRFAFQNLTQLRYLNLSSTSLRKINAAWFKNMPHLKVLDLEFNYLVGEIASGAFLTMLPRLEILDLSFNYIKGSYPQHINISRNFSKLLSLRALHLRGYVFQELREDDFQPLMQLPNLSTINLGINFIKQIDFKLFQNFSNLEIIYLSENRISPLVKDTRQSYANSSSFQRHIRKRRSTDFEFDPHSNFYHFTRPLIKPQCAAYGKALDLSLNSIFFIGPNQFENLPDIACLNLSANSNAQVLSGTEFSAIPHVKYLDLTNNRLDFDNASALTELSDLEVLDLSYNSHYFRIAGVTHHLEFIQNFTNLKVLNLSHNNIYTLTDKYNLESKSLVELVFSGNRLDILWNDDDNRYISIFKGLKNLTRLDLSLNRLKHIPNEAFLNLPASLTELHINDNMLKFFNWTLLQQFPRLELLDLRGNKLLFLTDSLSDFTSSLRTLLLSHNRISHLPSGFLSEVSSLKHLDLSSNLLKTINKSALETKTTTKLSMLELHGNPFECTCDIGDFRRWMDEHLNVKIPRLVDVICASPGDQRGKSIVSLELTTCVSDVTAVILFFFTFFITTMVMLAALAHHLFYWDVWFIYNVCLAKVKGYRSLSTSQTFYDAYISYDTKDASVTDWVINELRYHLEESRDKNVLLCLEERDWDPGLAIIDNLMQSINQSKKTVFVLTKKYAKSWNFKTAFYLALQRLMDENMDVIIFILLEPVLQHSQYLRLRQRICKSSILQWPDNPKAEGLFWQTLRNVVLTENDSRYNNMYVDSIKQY
Method: as §1
as §2, with “quadruplicates. Lowest effective concentrations (LEC) values, defined as the concentration that induces an effect which is at least two fold above the standard deviation of the assay, were determined for each compound.” for “quadruplicates.”

[3] = tested on: interferon-stimulated responsive elements (ISRE); assay: Activation of ISRE promoter elements in HEK-ISREluc cells by conditioned media from compound-treated PBMC; conditions: compound concentration applied to PBMCs overnight, supernatant on HEK-ISREluc cells 24 hours, read-out: HEK-ISRE luc (LEC)
Method: The potential of compounds to induce IFN-I was also evaluated by measuring the activation of interferon-stimulated responsive elements (ISRE) by conditioned media from PBMC. The ISRE element of sequence […] (SEQ ID NO: 1) is highly responsive to the STAT1-STAT2-IRF9 transcription factor, activated upon binding of IFN-I to their receptor IFNAR (Clontech, PT3372-5W). The plasmid pISRE-Luc from Clontech (ref. 631913) contains 5 copies of this ISRE element, followed by the firefly luciferase ORF. A HEK293 cell line stably transfected with pISRE-Luc (HEK-ISREluc) was established to profile the conditioned PBMC cell culture media.
Briefly, PBMCs were prepared from buffy coats of at least two donors using a standard Ficoll centrifugation protocol. Isolated PBMCs were resuspended in RPMI medium supplemented with 10% human AB serum and 2×10^5 cells/well were dispensed into 384-well plates containing compounds (70 μL total volume). After overnight incubation, 10 μL of supernatant was transferred to 384-well plates containing 5×10^3 HEK-ISREluc cells/well in 30 μL (plated the day before). Following 24 hours of incubation, activation of the ISRE elements was measured by assaying luciferase activity using 40 μL/well Steady Lite Plus substrate (Perkin Elmer) and measured with ViewLux ultraHTS microplate imager (Perkin Elmer). The stimulating activity of each compound on the HEK-ISREluc cells was reported as LEC value, defined as the compound concentration applied to the PBMCs resulting in a luciferase activity at least two fold above the standard deviation of the assay. The LEC in turn indicates the degree of ISRE activation on transfer of a defined amount of PBMC culture medium. Recombinant interferon α-2a (Roferon-A) was used as a standard control compound.

Row | SMILES | Human TLR 7 (LEC) [1] | Human TLR 8 (LEC) [2] | minimal effective concentration [3]
1 | CCCCOc1nc(N)nc2ccn(Cc3ccccc3)c12 [Compound 1] | 0.6 µM | >25 µM | 0.4 µM
2 | COCCn1ccc2nc(N)nc(OCc3cc(C)on3)c21 [Compound 2] | 2.7 µM | >25 µM | 0.5 µM
3 | COc1ccccc1Cn1ccc2nc(N)nc(OCc3cc(C)on3)c21 [Compound 3] | 0.1 µM | >25 µM | 0.03 µM
4 | CCCCOc1nc(N)nc2ccn(Cc3ccccn3)c12 [Compound 4] | 1.4 µM | >25 µM | 0.6 µM
5 | Cc1nc(COc2nc(N)nc3ccn(Cc4ccccn4)c23)no1 [Compound 6] |  | >25 µM | 
6 | COc1ccc(Cn2ccc3nc(N)nc(OCc4cc(C)on4)c32)nc1OC [Compound 7] | 0.08 µM | >25 µM | 0.03 µM
7 | COc1cccnc1Cn1ccc2nc(N)nc(OCc3cc(C)on3)c21 [Compound 8] | 0.03 µM | >25 µM | 0.01 µM

The next lines start with results.

Row | Human TLR 7 (LEC) [1] | Human TLR 8 (LEC) [2] | SMILES | minimal effective concentration [3]
8 |  | >25 µM | Cc1cc(COc2nc(N)nc3ccn(Cc4ccccn4)c23)no1 [Compound 5] | 
9 |  | >25 µM | COc1cccnc1Cn1ccc2nc(N)nc(OCc3ncc(C)o3)c21 [Compound 9] | 
10 |  | >25 µM | Cc1cnc(COc2nc(N)nc3ccn(Cc4ccccn4)c23)s1 [Compound 10] | 
11 |  | >25 µM | Cc1cnc(COc2nc(N)nc3ccn(Cc4ccccn4)c23)o1 [Compound 11] | 
